Reference: patent publication US10039761B2, “Co-crystals and pharmaceutical compositions comprising the same” (Vertex Pharmaceuticals Incorporated, priority 2013, dated 2018)
pIC50, pKi: −log10 of the molar value. Read-outs that look alike come from different tables or passages of the source.

Tests used:
[1] = tested on: ESO26 (GEJ) cancer cell line; experiment: Combination with genotoxic agents, viability (Mixtures analysis); type: cell-based; settings: single agent IC50 on which the mixtures were based
Procedure: (§1) The cell-based experiments and assays were performed with either molecule but not always with both. Compounds (1) and (2) were generally very similar in those assays and experiments. Analysis of the combination experiments was performed using two methods: the Bliss Additivity model and the Mixtures Blend method to determine the degree of synergy, additivity, or antagonism. In the Bliss method, a matrix of Bliss scores was generated for each cell line and treatment, and a sum of the Bliss values over the range of combination concentrations tested was calculated. […] Larger average Bliss values indicate greater confidence in reporting synergy, and smaller scores indicate greater confidence in reporting antagonism. In the Mixtures Blend method combinants were added in a range of optimal ratios using design of experiment (DOE) software (DX-8 from STAT-EASE); the cells were irradiated with 2 Gy as required. Synergy was determined using statistical analysis of the data (ANOVA) to indicate linear (additivity) or statistically significant (p<0.1) non-linear (antagonism or synergy) mixes of the combinants.

[2] = tested on: MDA-MB-436; experiment: Doxorubicin combination in triple negative breast cancer cells; type: cell-based; settings: Homo sapiens, BRCA mutant
Procedure: as §1

[3] = tested on: HCC-1395; experiment: as above; type: cell-based; settings: Homo sapiens, HCC1395, read-out: Doxorubicin IC50 (μM); plating density 5000; BRCA mutant
Procedure: as §1

[4] = tested on: MDA-MB-468; experiment: as above; type: cell-based; settings: Homo sapiens, BRCA wild-type
Procedure: as §1

[5] = tested on: HCC-1599; experiment: as above; type: cell-based; settings: Homo sapiens, HCC1599, read-out: Doxorubicin IC50 (μM); plating density unknown; BRCA mutant
Procedure: as §1

[6] = tested on: HCC-1937; experiment: as above; type: cell-based; settings: Homo sapiens, BRCA mutant
Procedure: as §1

[7] = target: DNA-PK (Homo sapiens, UniProt P78527); experiment: DNA-PK kinase inhibition radiometric assay; type: biochemical; settings: 100 μM ATP; competitive tight-binding inhibition fit
Procedure: Accordingly, compounds of the invention were dissolved in DMSO to make 10 mM initial stock solutions. Serial dilutions in DMSO were then made to obtain the final solutions for the assay.

[8] = Two stage dissolution (FaSSGF then FaSSIF); type: physicochemical; settings: 37° C., compared with free form
Procedure: Two stage dissolution experiments were performed at least in duplicate. Fasted state simulated gastric fluid (FaSSGF) was equilibrated for 30 minutes under stirring to 37° C. in a 100 ml clear class vial using a water bath consisting of a temperature controlled jacketed vessel. The compound 1:adipic acid co-crystal and compound 2:adipic acid co-crystal was added and the suspension was stirred at about 130 rpm and 37° C., respectively. Aliquots (0.5 ml) were taken at 5, 15, 30, and 60 minutes. Solids were separated by filter centrifugation using centrifuge filter units with a 0.45 μm membrane and spinning at 5000 rpm for 5 minutes on an Eppendorff Model 5418 centrifuge. The pH of the dissolution samples was measured after sampling at 15 and 60 minute time points. The supernatants of the filtered samples were 10 fold diluted of with diluent for HPLC Analysis. At the 65 minute timepoint fasted state simulated intestinal fluid FaSSIF equilibrated at 37° C. was added to the suspension and the suspension was continued to stir at 130 rpm. Aliquots (0.5 ml) were taken at 75, 90, 120 and 180 minute timepoints. Solids were separated by filter centrifugation using centrifuge filter units with a 0.45 μm membrane and spinning at 5000 rpm for 5 minutes on an Eppendorff Model 5418 centrifuge. The pH of the dissolution samples was measured after sampling at 75, 90 and 180 minute time points. […]

Work on `O=c1[nH]cc(F)c(=O)[nH]1` [Compound 5-FU, fluorouracil] yielded a pIC50 [1] of 4.70.
`COc1cccc2c1C(=O)c1c(O)c3c(c(O)c1C2=O)C[C@@](O)(C(=O)CO)C[C@@H]3O[C@H]1C[C@H](N)[C@H](O)[C@H](C)O1` [Doxorubicin, reference compound] gave an IC50 ([2]; MDA-MB-436, read-out: Doxorubicin IC50 (μM), plating density 5000) of 0.7 µM, an IC50 ([2]; MDA-MB-436, read-out: Doxorubicin IC50 (μM), plating density 20000) of 0.3 µM and an IC50 [3] of 0.5 µM. For the same compound, the IC50 ([4]; MDA-MB-468, read-out: Doxorubicin IC50 (μM), plating density 5000) was 0.02 µM, the IC50 ([4]; MDA-MB-468, read-out: Doxorubicin IC50 (μM), plating density 20000) was 0.04 µM and the IC50 [5] was 0.2 µM. It also gave an IC50 ([6]; HCC1937, read-out: Doxorubicin IC50 (μM), plating density 5000) of 0.2 µM and an IC50 ([6]; HCC1937, read-out: Doxorubicin IC50 (μM), plating density 20000) of 0.6 µM.
In the case of `[2H]c1nc(C)nc([2H])c1-c1cc(NC[C@@H](C)c2cccc3c(C(=O)NC)ccnc23)ncn1` [adipic acid co-crystal of Compound (2)], the pKi [7] was ~8.70 and the “two stage dissolution concentrations” value [8] was “higher Compound 1 and Compound 2 concentrations than Compound 1 or Compound 2 free form”.
`N.N.O=C([O-])C1(C(=O)[O-])CCC1.[Pt+2]` [carboplatin] gave a pIC50 [1] of 4.30.
`N.N.[Cl][Pt][Cl]` [cisplatin] showed a pIC50 [1] of 5.82.
For `COc1cc([C@@H]2c3cc4c(cc3[C@@H](O[C@@H]3O[C@@H]5CO[C@@H](C)O[C@H]5[C@H](O)[C@H]3O)[C@H]3COC(=O)[C@H]23)OCO4)cc(OC)c1O` [etoposide], the pIC50 [1] was 6.22.
Work on `CC(=O)O[C@H]1C(=O)[C@@]2(C)[C@H]([C@H](OC(=O)c3ccccc3)[C@]3(O)C[C@H](OC(=O)[C@H](O)[C@@H](NC(=O)c4ccccc4)c4ccccc4)C(C)=C1C3(C)C)[C@]1(OC(C)=O)CO[C@@H]1C[C@@H]2O` [paclitaxel] yielded a pIC50 [1] of 8.52.
